Data on three compounds can be found in ChEMBL document CHEMBL5154661, “Novel 2-phenyl-3-(Pyridin-2-yl) thiazolidin-4-one derivatives as potent inhibitors for proliferation of osteosarcoma cells in vitro and in vivo” (Eur J Med Chem, 2022).

Data set [1] in a line: Toxicity in BALB/c nude mouse xenografted with human MNNG/HOS cells assessed as body weight loss at 62.5 mg/kg, ip administered twice per day for 18 days. It is filed as organism-based, HOS-TE85. To be noted: in vivo, 432 h, time 18 day. (In xenograft studies the graft and the host belong to different species.)
The subject of data set [2] is HOS-TE85. As to the kind of experiment: Antitumor activity against human MNNG/HOS cells xenografted in female BALB/c nude mouse assessed as tumor growth inhibition at 30 mg/kg, po administered daily for 18 days relative to control. To be noted: HOS-TE85, 432 h, time 18 day, read-out: TGI. It is filed as functional.
The test system of data set [3] is MG-63. As to the kind of experiment: Antiproliferative activity against human MG-63 cells assessed as cell growth inhibition at 1 uM measured after 72 hrs by CCK-8 assay relative to control. It is filed as functional. A general note: Tetrazolium dyes change colour on reduction, which living cells bring about.
Data set [4] can be described thus: Kinetic solubility of compound at pH 7.4 by turbidimetry method. It is filed as physicochemical. To be noted: buffer, read-out: Kinetic_solubility.
Data set [5] concerns SJSA-1. As to the kind of experiment: Antiproliferative activity against human SJSA-1 assessed as cell growth inhibition at 1 uM measured after 72 hrs by CCK-8 assay relative to control. The class given is functional.
Data set [6] in a line: Microsomal stability in human liver microsomes assessed as intrinsic clearance at 0.1 uM incubated for 10 mins in presence of NADPH by LC-MS/MS analysis. The class given is ADME, Microsome. In general terms: Liver microsomes are a subcellular fraction often used to study metabolism.
For data set [7], the system named is HOS-TE85. Kind of data set: Antiproliferative activity against human MNNG/HOS cells assessed as cell growth inhibition measured after 72 hrs by CCK-8 assay. To be noted: HOS-TE85, 72 h. It is filed as functional, cell-based.
Data set [8] relates to 143B. As to the kind of experiment: Antiproliferative activity against human 143B cells assessed as cell growth inhibition at 1 uM measured after 72 hrs by CCK-8 assay relative to control. It is filed as functional.
The test system of data set [9] is U2OS. As to the kind of experiment: Antiproliferative activity against human U2OS cells assessed as cell growth inhibition at 1 uM measured after 72 hrs by CCK-8 assay relative to control. It is filed as functional.
Data set [10] is described as follows: Microsomal stability in rat liver microsomes assessed as intrinsic clearance at 0.1 uM incubated for 10 mins in presence of NADPH by LC-MS/MS analysis. It is filed as ADME, Microsome.
The subject of data set [11] is HOS-TE85. Kind of data set: Antiproliferative activity against human MNNG/HOS cells assessed as cell growth inhibition at 1 uM measured after 72 hrs by CCK-8 assay relative to control. It is filed as functional.
A short description of data set [12]: Kinetic solubility of compound at pH 6.8 by turbidimetry method. The class given is physicochemical. To be noted: buffer, read-out: Kinetic_solubility.
Data set [13] in a line: Microsomal stability in mouse liver microsomes assessed as intrinsic clearance at 0.1 uM incubated for 10 mins in presence of NADPH by LC-MS/MS analysis. The class given is ADME, Microsome.
Data set [14] concerns HOS. As to the kind of experiment: Antiproliferative activity against human HOS cells assessed as cell growth inhibition at 1 uM measured after 72 hrs by CCK-8 assay relative to control. It is filed as functional.

Converted amounts (≈) assume the structure as drawn.

The inhibition is the change of the read-out against control, counted positive when it falls. As a reminder, the IC50 is the concentration that gives 50% inhibition.

As to `CNC(=O)c1cc(Oc2ccc(NC(=O)Nc3ccc(Cl)c(C(F)(F)F)c3)cc2)ccn1` [SORAFENIB], the Activity result in [1] is recorded as “Non-Toxic”. Moreover, the inhibition in vivo at 30 mg/kg in data set [2] came out at 44.2%.
For the compound `Cc1cccc(N2C(=O)CSC2c2cccc(C(=O)NCCCCc3ccccc3)c2)c1` (stereo unspecified), the inhibition at 1 µM in data set [3] is 93%; in [5], 84%; in data set [8], 71%; in data set [9], 39%; in [11] it was 96%; in [14], 84%. Moreover, the solubility kinetic in [4] and in data set [12] was 10 µM (≈ 4.45 µg/mL) each time. Also, the “intrinsic clearance (CLint)” value in data set [6] worked out at 2553 mL/min/g; in [10], 3139 mL/min/g; in [13], 2936 mL/min/g. For the same compound, the IC50 in data set [7] came to 93.2 nM.
On to `COc1ccc(F)cc1N1C(=O)CSC1c1cccc(C(=O)NCCCCc2ccccc2)c1` (stereo unspecified), for which the inhibition at 1 µM in data set [3] worked out at 86%; in data set [5], 76%; in data set [8], 62%; in data set [9], 32%; in data set [11] it was 95%; in data set [14], 46%. Further, the solubility kinetic in data set [4] and in data set [12] was 10 µM (≈ 4.79 µg/mL) throughout. For the same compound, the “intrinsic clearance (CLint)” value in data set [6] was 1253 mL/min/g; in [10] it was 2298 mL/min/g; in data set [13] it was 2247 mL/min/g. The half-inhibitory concentration (IC50) in data set [7] is 8.8 nM.
